Test results: PubChem BioAssay (NCI)
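Protocol summary: plate cells (96-well), add compound at 5 concentrations, incubate 48 h, interpolate endpoints linearly. At the GI50, growth is halved. TGI marks complete inhibition of growth.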

Experiments:
Experiment in all cases: NCI tumour cell line growth inhibition, 48 h
SK-MEL-28 melanoma = system: SK-MEL-28 melanoma
OVCAR-8 ovarian = system: OVCAR-8 ovarian
MCF7 breast = system: MCF7 breast
CAKI-1 renal = system: CAKI-1 renal
HCT-15 colon = system: HCT-15 colon
IGROV1 ovarian = system: IGROV1 ovarian
786-0 renal = system: 786-0 renal
SF-539 CNS = system: SF-539 CNS
MOLT-4 leukemia = system: MOLT-4 leukemia
SW-620 colon = system: SW-620 colon

SMILES	TGI (SK-MEL-28 melanoma)	TGI (OVCAR-8 ovarian)	TGI (MCF7 breast)	TGI (CAKI-1 renal)	TGI (HCT-15 colon)	TGI (IGROV1 ovarian)	TGI (786-0 renal)	TGI (SF-539 CNS)	TGI (MOLT-4 leukemia)	TGI (SW-620 colon)	GI50 (SK-MEL-28 melanoma)	GI50 (OVCAR-8 ovarian)	GI50 (MCF7 breast)	GI50 (CAKI-1 renal)	GI50 (HCT-15 colon)	GI50 (IGROV1 ovarian)	GI50 (786-0 renal)	GI50 (SF-539 CNS)	GI50 (MOLT-4 leukemia)	GI50 (SW-620 colon)
O=C(O)Cn1ccc(=O)c2ccc([N+](=O)[O-])cc21	> 100 µM	> 100 µM	> 100 µM	> 100 µM	> 100 µM	> 100 µM	> 100 µM	> 100 µM	> 100 µM	> 100 µM										
O=C(CN1CCOCC1)Nc1ccc(Cn2nnc3c2C(=O)c2nnn(Cc4ccc(NC(=O)CN5CCOCC5)cc4)c2C3=O)cc1	2.62 µM	1.33 µM	0.484 µM	> 100 µM	> 100 µM	1.64 µM	5.27 µM	1.07 µM	0.705 µM	1.75 µM	0.696 µM	0.358 µM	0.18 µM	> 45 µM	7.42 µM	0.361 µM	1.94 µM	0.304 µM	0.254 µM	0.366 µM
COc1cccc(/C=N/NC(=O)c2ccccc2Nc2ccnc(C(F)(F)F)c2)c1O	> 34.7 µM	> 38 µM	29.5 µM	9.72 µM	> 100 µM	0.0745 µM	> 37.5 µM	11.3 µM	1.19 µM	> 70.1 µM	1.48 µM	0.319 µM	0.313 µM	0.257 µM	0.201 µM	0.0234 µM	0.552 µM	0.583 µM	0.196 µM	0.918 µM
O=C(O)CCCCC(CCSCc1ccccc1)SCc1ccccc1 (centres undefined)	> 100 µM	> 100 µM	> 100 µM	> 100 µM	> 100 µM	> 100 µM	> 100 µM	> 100 µM	> 100 µM	> 100 µM	45.1 µM	> 63.6 µM	58.8 µM	> 77.5 µM	33.1 µM	42.4 µM	64.2 µM	66.5 µM	47 µM	> 70 µM
Cc1ccc2c(c1)C(=O)/C(=C/c1ncc([N+](=O)[O-])n1C)O2	7.29 µM	7 µM	9.88 µM	7.54 µM	8.78 µM	> 23.7 µM	5.31 µM	6.19 µM	7.43 µM	2.3 µM	2.34 µM	0.481 µM	0.534 µM	0.665 µM	0.369 µM	1.96 µM	2.16 µM	2.26 µM	0.5 µM	0.271 µM
O=c1oc2ccc(F)cc2c(=O)n1-c1ccc(F)cc1F	11.7 µM	91.6 µM	> 100 µM	6.4 µM	17.5 µM	> 100 µM	11.4 µM	13.8 µM	> 100 µM	80.6 µM	2.79 µM	3.39 µM	2.87 µM	1.98 µM	3.36 µM	3.01 µM	3.13 µM	3.31 µM	3.46 µM	3.33 µM
Cc1nc2cccc([N+](=O)[O-])c2c(NCCCN(C)C)c1C	> 100 µM	> 54.7 µM	60.6 µM	> 100 µM	> 52.8 µM	> 100 µM	> 100 µM	> 100 µM	> 85.1 µM	> 100 µM										
O=C1/C(=C/c2ccc(Cl)cc2Cl)N=C(c2ccccc2)N1Cc1ccco1		48.4 µM	33.3 µM	50.6 µM	> 100 µM	51 µM	41.2 µM	55.6 µM	> 100 µM	> 100 µM		20.5 µM	13.9 µM	30.2 µM	37.7 µM	18.6 µM	19.8 µM	23.7 µM	25.8 µM	46 µM
CN1CCN(Cc2ccc(NC(=O)c3cncc(C#Cc4cnc(N)c5ccc(C#N)cc45)c3)cc2C(F)(F)F)CC1	0.519 µM	1.32 µM	1.86 µM	0.206 µM	0.787 µM		1.01 µM	0.598 µM	1.4 µM	1.45 µM	0.0273 µM	0.141 µM	0.688 µM	0.0175 µM	0.122 µM		0.111 µM	0.101 µM	0.028 µM	0.059 µM
N#CSCC1CC(O)(c2ccccc2)C(c2ccccc2)C(c2ccc(Cl)cc2)O1 (centres undefined)	4.5 µM	3.83 µM	3.21 µM	4.14 µM	3.38 µM	3.74 µM	3.28 µM	3.17 µM		3.93 µM	1.97 µM	1.78 µM	1.27 µM	1.67 µM	1.43 µM	2 µM	1.74 µM	1.76 µM		1.63 µM
